For assay [1], the target named is T1, human α1-GABAA receptor (α1-GABAAR-HEK293 cells) (Homo sapiens, UniProt P14867+P18507).
T1 construct: expressed in transfected cells
As to the kind of experiment: Whole-cell patch-clamp electrophysiology, positive allosteric modulatory activity on α1-GABAA receptor. Type of assay: cell-based. To be noted: read-out: α1-GABAA positive allosteric modulatory activity. A general note: Patch clamp records ionic current or voltage across a cell membrane.

For assay [2], the target named is T2, human α2-GABAA receptor (α2-GABAAR-HEK293 cells) (Homo sapiens, UniProt P18507+P47869).
T2 construct: expressed in transfected cells
T2 sequence (P47869 29-451): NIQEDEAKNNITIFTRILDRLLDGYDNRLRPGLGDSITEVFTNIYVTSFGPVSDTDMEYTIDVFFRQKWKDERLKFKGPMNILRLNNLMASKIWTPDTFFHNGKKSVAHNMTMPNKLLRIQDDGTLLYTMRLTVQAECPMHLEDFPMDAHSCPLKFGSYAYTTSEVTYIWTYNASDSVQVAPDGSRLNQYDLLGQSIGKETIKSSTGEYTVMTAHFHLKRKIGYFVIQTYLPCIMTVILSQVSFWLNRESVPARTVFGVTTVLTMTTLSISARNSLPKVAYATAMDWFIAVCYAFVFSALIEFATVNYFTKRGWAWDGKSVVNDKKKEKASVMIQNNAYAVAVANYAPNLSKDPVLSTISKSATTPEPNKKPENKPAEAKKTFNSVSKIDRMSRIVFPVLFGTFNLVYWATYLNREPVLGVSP
T2 sequence (P18507 40-467 isoform P18507-1 limits assumed): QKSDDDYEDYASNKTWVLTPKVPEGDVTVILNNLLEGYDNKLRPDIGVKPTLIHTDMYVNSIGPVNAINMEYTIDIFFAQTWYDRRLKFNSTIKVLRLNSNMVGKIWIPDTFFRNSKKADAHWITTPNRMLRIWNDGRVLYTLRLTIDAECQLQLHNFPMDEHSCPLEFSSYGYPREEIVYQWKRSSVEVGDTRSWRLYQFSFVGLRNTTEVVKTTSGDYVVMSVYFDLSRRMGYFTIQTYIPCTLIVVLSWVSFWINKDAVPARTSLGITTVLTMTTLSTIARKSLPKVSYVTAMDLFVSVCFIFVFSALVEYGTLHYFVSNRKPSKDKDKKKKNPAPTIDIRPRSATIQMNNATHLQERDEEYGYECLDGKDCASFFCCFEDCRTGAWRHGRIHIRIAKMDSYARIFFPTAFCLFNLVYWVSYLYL
T2 sequence (P28472 26-473 partner): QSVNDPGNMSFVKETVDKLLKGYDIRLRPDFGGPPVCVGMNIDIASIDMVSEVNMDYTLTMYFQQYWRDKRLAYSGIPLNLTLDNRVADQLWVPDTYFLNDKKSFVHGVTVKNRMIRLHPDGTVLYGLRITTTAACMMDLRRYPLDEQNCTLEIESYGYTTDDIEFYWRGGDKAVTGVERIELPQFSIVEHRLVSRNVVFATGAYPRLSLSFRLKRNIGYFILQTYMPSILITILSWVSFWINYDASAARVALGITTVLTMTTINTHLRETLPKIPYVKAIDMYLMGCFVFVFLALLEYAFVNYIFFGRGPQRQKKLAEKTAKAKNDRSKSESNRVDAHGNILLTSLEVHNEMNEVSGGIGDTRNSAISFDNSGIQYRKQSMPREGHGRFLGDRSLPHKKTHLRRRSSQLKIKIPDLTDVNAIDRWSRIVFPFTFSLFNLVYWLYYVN
As to the kind of experiment: Whole-cell patch-clamp electrophysiology, positive allosteric modulatory activity on α2-GABAA receptor. The conditions noted are these: read-out: α2-GABAA positive allosteric modulatory activity. Type of assay: cell-based.

Molecules are shown by their SMILES.

T1 sequence (P14867 28-456): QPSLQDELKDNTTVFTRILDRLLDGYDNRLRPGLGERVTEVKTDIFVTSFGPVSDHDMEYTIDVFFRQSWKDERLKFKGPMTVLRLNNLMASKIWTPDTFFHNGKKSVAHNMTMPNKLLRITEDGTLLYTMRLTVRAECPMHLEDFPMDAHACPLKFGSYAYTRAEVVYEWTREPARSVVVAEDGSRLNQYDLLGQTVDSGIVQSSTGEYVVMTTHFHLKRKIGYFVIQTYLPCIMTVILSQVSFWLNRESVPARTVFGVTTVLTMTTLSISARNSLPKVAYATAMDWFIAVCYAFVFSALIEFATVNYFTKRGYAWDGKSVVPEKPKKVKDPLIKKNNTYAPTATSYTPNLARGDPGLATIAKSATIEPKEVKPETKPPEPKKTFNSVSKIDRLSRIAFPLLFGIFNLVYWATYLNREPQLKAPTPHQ
T1 sequence (P18507 40-467 isoform P18507-1 limits assumed): as the sequence (P18507 40-467 isoform P18507-1 limits assumed) above
T1 sequence (P28472 26-473 partner): as the sequence (P28472 26-473 partner) above

With `CCn1cnc2c(-c3ccc(F)c(-c4cc5oc(=O)n(C)c5cc4OC)c3)cnnc21` [Example 87, 6-(5-(7-Ethyl-7H-imidazo[4,5-c]pyridazin-4-yl)-2-fluorophenyl)-5-methoxy-3-methylbenzo[d]oxazol-2(3H)-one], the activation at 0.1 µM is 3% in assay [1] and 114% in assay [2].
On to `CCn1cnc2c(-c3ccc(F)c(-c4cc5c(cc4OC)N(C)C(=O)C5)c3)cnnc21` [Example 161, 5-(5-(7-Ethyl-7H-imidazo[4,5-c]pyridazin-4-yl)-2-fluorophenyl)-6-methoxy-1-methyldihydro-2-one], for which the activation at 0.1 µM amounted to 65% in assay [1] and 118% in assay [2].
For the compound `CCn1cnc2c(-c3ccc(F)c(-c4cc5c(cc4OC)N(C)C(=O)CO5)c3)cnnc21` [Example 42, 7-(5-(7-Ethyl-7H-imidazo[4,5-c]pyridazin-4-yl)-2-fluorophenyl)-6-methoxy-4-methyl-2H-benzo[b][1,4]oxazin-3(4H)-one], the activation at 0.1 µM in assay [1] was found to be 27%; in assay [2] it was 145%.
In the case of `CCN1C(=O)COc2cc(-c3cc(-c4cnnc5c4ncn5CC)ccc3F)c(OC)cc21` [Example 31, 4-Ethyl-7-(5-(7-ethyl-7H-imidazo[4,5-c]pyridazin-4-yl)-2-fluorophenyl)-6-methoxy-2H-benzo[b][1,4]oxazin-3(4H)-one], the values for the activation at 0.1 µM in assay [1] and in assay [2] were 13% and 96%, respectively.
For `COc1cc2c(cc1-c1cc(-c3cnnc4c3ncn4C(C)C)ccc1F)OCC(=O)N2C` [Example 36, 7-(2-Fluoro-5-(7-isopropyl-7H-imidazo[4,5-c]pyridazin-4-yl)phenyl)-6-methoxy-4-methyl-2H-benzo[b][1,4]oxazin-3(4H)-one], the activation at 0.1 µM was found to be 25% in assay [1] and 137% in assay [2].
